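Values below derive from 48-hour exposures of cells grown in 96-well plates, with endpoints linearly interpolated between the two concentrations bracketing the appropriate inhibition level. TGI denotes the concentration required for complete inhibition of growth.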
Key:
Assay in all cases: NCI-60 cell line screen, 48 h
[1] = tested on: LXFL 529 NSCLC
[2] = tested on: HS 578T breast
[3] = tested on: OVCAR-5 ovarian
[4] = tested on: SK-MEL-28 melanoma
[5] = tested on: UACC-62 melanoma
[6] = tested on: OVCAR-8 ovarian
[7] = tested on: DU-145 prostate
[8] = tested on: M19-MEL melanoma
[9] = tested on: A549 NSCLC

Row | Compound | TGI [1] | TGI [2] | TGI [3] | TGI [4] | TGI [5] | TGI [6] | TGI [7] | TGI [8] | TGI [9]
1 | O=c1c2ccccc2n2cnc3ccc(NCCNCCO)c1c32 | 16.4 µM | 6.26 µM | 5.84 µM | 11 µM | 7.27 µM | 5.02 µM | 3.31 µM | 12.9 µM | 3.66 µM
2 | COc1cc2c(cc1OC)C(SC)C(=O)N(Cc1cccc(OC)c1OC)CC2 (stereo not drawn) | 39.5 µM | > 24.6 µM | 98.3 µM | > 42.3 µM | 30.2 µM | 70.9 µM | > 23 µM | 22.3 µM | > 82.7 µM
3 | CC(C)=CC(=O)CC(=O)C(=O)NCCNC(=O)C(=O)CC(=O)C=C(C)C | > 50 µM |  | > 50 µM | > 50 µM | > 50 µM | > 50 µM |  | > 50 µM | > 50 µM
4 | Cc1cc(OC(=O)c2c(C)cc(OC(=O)c3c(C)cc(O)cc3O)cc2O)cc(O)c1C(=O)O | > 100 µM |  | > 100 µM | > 100 µM | > 100 µM | > 100 µM |  | > 100 µM | > 100 µM
5 | Cc1cc2c(cc1C)[n+](=O)c(C(=O)/C=C/c1ccccc1[N+](=O)[O-])c(C)n2[O-] | > 100 µM | > 77.2 µM | > 100 µM | > 100 µM | 75.3 µM | > 100 µM | > 100 µM | > 100 µM | > 100 µM
6 | CCOC(=O)COc1cccc2occc(=O)c12 | > 100 µM |  | > 100 µM | > 100 µM | > 100 µM | > 100 µM |  | > 100 µM | > 100 µM

— PubChem BioAssay (NCI)
